Laboratory results reported in patent US8772504B2, “Substituted benzoxazole, benzimidazole, oxazolopyridine and imidazopyridine derivatives as gamma secretase modulators” (Janssen Pharmaceuticals, Inc., priority 2009, dated 2014).

What was measured:
Aβ42 [1] = test: Screening for γ-secretase-modulating activity, Method 1: Aβ42 sandwich ELISA on SKNBE2 cell media; format: cell-based; settings: Homo sapiens, SKNBE2 cells carrying APP 695 wild type
How it was run: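 SKNBE2 cells expressing wild-type APP695 were treated with compound for 18 h in Ultraculture/1% glutamine. Secreted Aβ42 was quantified by sandwich ELISA (C-terminal capture, biotinylated 3D6, TMB, 450 nm), with WST-1 used as a toxicity check. IC50 was derived from 4-parameter fits of % inhibition or % of untreated control.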

Aβtotal [2] = test: Screening for γ-secretase-modulating activity, Method 1: Aβtotal sandwich ELISA on SKNBE2 cell media; format: cell-based; settings: Homo sapiens, SKNBE2 cells carrying APP 695 wild type
How it was run: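 SKNBE2 cells expressing wild-type APP 695 were treated with compound for 18 hours. Aβtotal in the medium was measured by sandwich ELISA (6E10 capture, biotinylated 4G8 detection, fluorogenic peroxidase read-out). IC50 came from a 4-parameter fit of % inhibition with top/bottom fixed at 100/0 and Hill slope 1, or as averaged IC50 from % of untreated control.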

Aβ42 [3] = test: In vivo efficacy Method 1: brain soluble Aβ42 by ELISA; design: species or system mouse; settings: Table 4a, single oral dose, overnight fasted animals, sacrificed after 4 h, soluble fraction of brain homogenates
From the text: (§1) To determine whether acute administration of an Aβ42 lowering agent would reduce Aβ42 levels in vivo, non-transgenic rodents, e.g. mice or rats were used. Alternatively, two to three month old Tg2576 mice expressing APP695 containing the “Swedish” variant can be used or a transgenic mouse model developed by Dr. Fred Van Leuven (K.U. Leuven, Belgium) and co-workers, with neuron-specific expression of a clinical mutant of the human amyloid precursor protein [V717I] […] Young transgenic mice have high levels of Aβ in the brain but no detectable Aβ deposition. At approximately 6-8 months of age, the transgenic mice start to display spontaneous, progressive accumulation of β-amyloid (Aβ) in the brain, eventually resulting in amyloid plaques within the subiculum, hippocampus and cortex. Animals treated with the Aβ42 lowering agent were examined and compared to those untreated or treated with vehicle and brain levels of soluble Aβ42 and total Aβ would be quantitated by standard techniques, for example, using ELISA.
(§2) A typical protocol for measuring Aβ42 lowering in vivo is shown but it is only one of many variations that could be used to optimize the levels of detectable Aβ. For example, Aβ42 lowering compounds were formulated in 20% of Captisol® (a sulfobutyl ether of β-cyclodextrin) in water or 20% hydroxypropyl β cyclodextrin. The Aβ42 lowering agents were administered as a single oral dose or by any acceptable route of administration to overnight fasted animals. After 4 h, the animals were sacrificed and Aβ42 levels were analysed.
(§3) Blood was collected by decapitation and exsanguinations in EDTA-treated collection tubes. Blood was centrifuged at 1900 g for 10 minutes (min) at 4° C. and the plasma recovered and flash frozen for later analysis. The brain was removed from the cranium and hindbrain. The cerebellum was removed and the left and right hemisphere were separated. The left hemisphere was stored at −18° C. for quantitative analysis of test compound levels. The right hemisphere was rinsed with phosphate-buffered saline (PBS) buffer and immediately frozen on dry ice and stored at −80° C. until homogenization for biochemical assays.
(§4) All samples were sonicated for 30 seconds on ice at 20% power output (pulse mode). Homogenates were centrifuged at 221.300×g for 50 min. The resulting high speed supernatants were then transferred to fresh tubes and were optionally further purified before the next step. A portion of the supernatant was neutralized with 10% 0.5 M Tris-HCl and this was used to quantify Aβtotal.
(§5) The obtained supernatants were purified with Water Oasis HLB reverse phase columns (Waters Corp., Milford, Mass.) to remove non-specific immunoreactive material from the brain lysates prior subsequent Aβ detection. Using a vacuum manifold, all solutions were passed through the columns at a rate of approximately 1 ml per min, so the vacuum pressure was adjusted accordingly throughout the procedure. Columns were preconditioned with 1 ml of 100% MeOH, before equilibration with 1 ml of H2O, Non-neutralized brain lysates were loaded onto the columns. The loaded samples were then washed twice with the first wash performed with 1 ml of 5% MeOH, and the second wash with 1 ml of 30% MeOH. Finally, the Aβ was eluted from the columns and into 100×30 mm glass tubes, with a solution of 90% MeOH with 2% NH4OH. The eluate was then transferred into 1.5 ml tubes and concentrated in a speed-vac concentrator on high heat for about 1.5-2 h at 70° C. The concentrated Aβ was then resuspended in UltraCULTURE General Purpose Serum-Free Medium (Cambrex Corp., Walkersville, Md.) plus Protease Inhibitors added.
To quantify the amount of Aβ42 in the soluble fraction of the brain homogenates, commercially available Enzyme-Linked-Immunosorbent-Assay (ELISA) kits were used (e.g. Innotest® β-Amyloid(1-42), Innogenetics N.V., Ghent, Belgium). The Aβ42 ELISA was performed using the plate provided with the kit only.

Aβtotal [4] = test: In vivo efficacy Method 1: brain soluble Aβtotal by ELISA; design: species or system mouse; settings: Table 4a, single oral dose, overnight fasted animals, sacrificed after 4 h, soluble fraction of brain homogenates
From the text: as §1, §2, §3, §4
as §5, with “added. […]” for “added.”

[5] = tested on: Notch-processing activity of the γ-secretase-complex; test: Notch cell-free assay (NICD production from recombinant Notch substrate N99); format: biochemical, mouse; settings: 1 μM test compound, 0.3-0.5 μM Notch substrate, 37° C. for 6 to 22 h, western blotting
Experimental: The Notch transmembrane domain is cleaved by gamma secretase to release
Notch Intracellular C-terminal Domain (NICD).
To monitor the effect of compounds on NICD production, a recombinant Notch substrate (N99) was prepared. The Notch substrate, comprised of mouse Notch fragment (V1711-E1809), an N-terminal methionine and a C-terminal FLAG sequence ([…]), was expressed in E. coli and purified on a column containing an anti-FLAG M2 affinity matrix.
A typical Notch cell-free assay consisted of 0.3-0.5 μM Notch substrate, an enriched preparation of γ secretase and 1 μM of a test compound (compounds 8, 15, 92, 108, 114 and 130 of the present invention). Controls included a γ secretase inhibitor (GSI), such as (2S)—N-[2-(3,5-difluorophenyeacetyl]-L-alanyl-2-phenyl-glycine 1,1-dimethylethyl ester (DAPT) or (2S)-2-hydroxy-3-methyl-N-[(1S)-1-methyl-2-oxo-2-[[(1S)-2,3,4,5-tetrahydro-3-methyl-2-oxo-1H-3-benzazepin-1-yl]amino]ethyl]-butanamide (Semagacestat), and DMSO, the final concentration of DMSO being 1%. Recombinant Notch substrate was pre-treated with 17 μM DTT (1,4-dithiothreitol) and 0.02% SDS (Sodium Dodecyl Sulfate) and heated at 65° C. for 10 min. The mixture of substrate, gamma secretase and compound/DMSO was incubated at 37° C. for 6 to 22 hours (h). 6 h incubation was sufficient to produce the maximal amount of NICD and the cleaved product remained stable for an additional 16 h. Reaction products were processed for SDS PAGE (Sodium Dodecyl Sulfate-Poly Acrylamide Gel Electrophoresis) and western blotting. Blots were probed with an anti-Flag M2 antibody, followed by LI-COR infrared secondary antibody, and analyzed with the Odyssey Infrared Imaging System (LI-COR® Biosciences).

[6] = tested on: T1, Notch-processing activity of the γ-secretase-complex; test: Notch cell-based assay (N2-CHO/DL-CHO co-culture, Dual-Glo luciferase); design: species or system mouse; settings: N2-CHO/DL-CHO co-culture 16 h; read-out: average IC50 Notch cell-based assay (luciferase readout)
T1 construct: average IC50 Notch cell-based assay (luciferase readout); other: N2-CHO/DL-CHO co-culture 16 h; five-point curve 3 μM-
From the text: The Notch cell-based assay was based on the interaction of Notch and its ligand in a co-culture system and utilized the Dual-Glo Luciferase Assay System (Promega) to monitor NICD production. 2 stable cell lines, N2-CHO and DL-CHO, were established to express full-length mouse Notch2 and Delta respectively. Cells that expressed mouse Notch were also transfected with 2 plasmids, pTP1-Luc and pCMV-RLuc, to express firefly and Renilla luciferase. Expression of firefly luciferase was under the control of TP1 promoter that responded to NICD activation.
N2-CHO cells were seeded at 1×10^5/well in 24-well plates the day before transfection. On the second day, cells were double transfected with 3 μg/well pTP1-Luc (expressing firefly luciferase) and 0.3 ng/well pCMV-RLuc (expressing Renilla luciferase). After 6 h incubation, transfected N2-CHO cells were washed and DL-CHO cells (2×10^5 cells/well) were added.
Compounds were pre-mixed with DL-CHO cell suspension in a five-point curve. Typically, compound treatment was performed in duplicate with a serial 1:10 dilution (3 μM-0.3 nM) in DMSO. The final concentration of DMSO in a given culture was 1%. Controls included non-transfected cells and transfected cells treated with a GSI or DMSO only. Luciferase assays were performed after 16 h co-culture and compound treatment.
The luciferase assay was carried out according to manufacture's instructions. Briefly, cells were washed with PBS (Phosphate Buffered Saline), lysed with Passive Lysis Buffer (Promega), and incubated at room temperature for 20 min. Lysates were mixed with Dual-Glo Luciferase Reagent and the firefly luciferase activity was measured by reading the luminescence signal in the EnVision 2101 Multilabel reader. Dual-Glo Stop & Glo Reagent was then added to each well and the Renilla luciferase signal was measured.

[7] = Table 3a, 18 hours, XLfit, top/bottom fixed to 100 and 0, hill slope 1
[8] = Table 3b, non-linear regression of % of control, averaged IC50 values

Compound	IC50 (Aβ42 [1]; [7])	IC50 (Aβ42 [1]; [8])	IC50 (Aβtotal [2]; [7])	IC50 (Aβtotal [2]; [8])	Aβ42 (% Ctrl) _Mean (Aβ42 [3])	Aβtotal (% Ctrl) _Mean (Aβtotal [4])	melting point	effect on the Notch-processing activity of the γ-secretase-complex (production of NICD) [5]	IC50 [6]
Cc1cn(-c2ncc(Nc3cccc4c3nc(-c3ccc(F)cc3)n4C)cn2)cn1 [Compound 6]	29 nM	28 nM	> 1000 nM	> 3000 nM	66 % Ctrl	91 % Ctrl	201.7 °C		
CC(NC(=O)Cc1cc(F)cc(F)c1)C(=O)NC(C(=O)OC(C)(C)C)c1ccccc1 [DAPT, (2S)—N-[2-(3,5-difluorophenyeacetyl]-L-alanyl-2-phenyl-glycine 1,1-dimethylethyl ester, reference compound]								blocked	45 nM
CC(C)[C@H](O)C(=O)N[C@@H](C)C(=O)N[C@@H]1C(=O)N(C)CCc2ccccc21 [Semagacestat, (2S)-2-hydroxy-3-methyl-N-[(1S)-1-methyl-2-oxo-2-[[(1S)-2,3,4,5-tetrahydro-3-methyl-2-oxo-1H-3-benzazepin-1-yl]amino]ethyl]-butanamide, reference compound]								blocked	40 nM
